Key:
Test in all cases: relative viability (nuclei count vs DMSO), 5 days (fraction); higher = more cells survive
Serdemetan + Dasatinib = compound: c1ccc2c(CCNc3ccc(Nc4ccncc4)cc3)c[nH]c2c1 [Serdemetan] + Cc1nc(Nc2ncc(C(=O)Nc3c(C)cccc3Cl)s2)cc(N2CCN(CCO)CC2)n1 [Dasatinib] (partner 0.075 µM)
Method in brief: (§1)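 A single step with final 0.05% Triton X-100, 1% formaldehyde and 1 ug/ml Hoechst fixed the cells and stained nuclei 5 days after treatment. Lung cancer cell lines in 1536-well plates had been treated by pin tool the day after seeding with one drug alone or a fixed anchor-drug dose plus five library-drug doses (not always all listed) in √10 steps, and nuclei were counted on 4× images. Relative viability is the ratio of nuclei in treated wells to nuclei in vehicle wells, taken as the median of duplicate plates.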

Serdemetan + Luminespib = compound: c1ccc2c(CCNc3ccc(Nc4ccncc4)cc3)c[nH]c2c1 [Serdemetan] + CCNC(=O)c1noc(-c2cc(C(C)C)c(O)cc2O)c1-c1ccc(CN2CCOCC2)cc1 [Luminespib] (partner 0.01 µM)
Method in brief: as §1

Selisistat + Navitoclax = compound: C1CC(C2=C(C1)C3=C(N2)C=CC(=C3)Cl)C(=O)N [Selisistat] + CC1(C)CCC(c2ccc(Cl)cc2)=C(CN2CCN(c3ccc(C(=O)NS(=O)(=O)c4ccc(N[C@H](CCN5CCOCC5)CSc5ccccc5)c(S(=O)(=O)C(F)(F)F)c4)cc3)CC2)C1 [Navitoclax] (partner 0.5 µM)
Method in brief: as §1

Selisistat + Lapatinib = compound: C1CC(C2=C(C1)C3=C(N2)C=CC(=C3)Cl)C(=O)N [Selisistat] + CS(=O)(=O)CCNCc1ccc(-c2ccc3ncnc(Nc4ccc(OCc5cccc(F)c5)c(Cl)c4)c3c2)o1 [Lapatinib] (partner 2 µM)
Method in brief: as §1

Row | Cell Line | relative viability (Serdemetan + Dasatinib; first compound 0.04 µM) | relative viability (Serdemetan + Dasatinib; first compound 0.1265 µM) | relative viability (Serdemetan + Dasatinib; first compound 0.4 µM) | relative viability (Serdemetan + Dasatinib; first compound 4 µM) | relative viability (Serdemetan + Luminespib; first compound 0.04 µM) | relative viability (Serdemetan + Luminespib; first compound 0.1265 µM) | relative viability (Serdemetan + Luminespib; first compound 0.4 µM) | relative viability (Serdemetan + Luminespib; first compound 1.265 µM) | relative viability (Serdemetan + Luminespib; first compound 4 µM) | relative viability (Selisistat + Navitoclax; first compound 0.4 µM) | relative viability (Selisistat + Navitoclax; first compound 1.265 µM) | relative viability (Selisistat + Navitoclax; first compound 4 µM) | relative viability (Selisistat + Navitoclax; first compound 12.65 µM) | relative viability (Selisistat + Navitoclax; first compound 40 µM) | relative viability (Selisistat + Lapatinib; first compound 0.4 µM) | relative viability (Selisistat + Lapatinib; first compound 1.265 µM) | relative viability (Selisistat + Lapatinib; first compound 4 µM) | relative viability (Selisistat + Lapatinib; first compound 12.65 µM) | relative viability (Selisistat + Lapatinib; first compound 40 µM) | relative viability (Serdemetan + Dasatinib; first compound 1.265 µM)
1 | NCI-H1975 | 0.373 | 0.418 | 0.361 | 0.352 | 0.371 | 0.393 | 0.176 | 0.18 | 0.17 | 1.08 | 0.913 | 1.05 | 0.982 | 0.976 | 0.823 | 0.831 | 0.706 | 0.759 | 0.65 | 
2 | CAL-12T | 0.392 | 0.516 | 0.429 | 0.292 | 0.227 | 0.28 | 0.141 | 0.266 | 0.486 | 1.19 | 1.04 | 1.16 | 1.22 | 1.14 | 0.628 | 0.704 |  | 0.627 | 0.646 | 0.456
3 | NCI-H1623 | 0.549 | 0.628 | 0.359 | 0.562 | 0.498 | 0.481 | 0.432 | 0.551 | 0.427 |  |  |  |  |  |  |  |  |  |  | 0.442
4 | HCC-44 |  |  |  |  | 0.894 | 1.08 | 1.01 | 0.906 | 0.901 | 1.03 | 0.955 | 0.911 | 0.997 | 1.02 | 0.983 | 1.16 | 1.01 | 1.02 | 1.13 | 
5 | NCI-H1703 |  |  |  |  |  |  |  |  |  | 1.24 | 1.15 | 1.25 | 1.42 | 1.27 | 1.1 | 1.06 | 1.12 | 1.05 | 1.05 | 
6 | Calu-6 |  |  |  |  |  |  |  |  |  | 0.832 | 0.779 | 0.84 | 0.82 | 0.789 | 1.06 | 1.09 | 1.02 | 0.949 | 0.895 | 
7 | EBC-1 |  |  |  |  |  |  |  |  |  | 0.526 | 0.416 | 0.433 | 0.448 | 0.459 | 0.256 | 0.208 | 0.224 | 0.243 | 0.244 | 
8 | NCI-H358 | 0.185 | 0.167 | 0.161 | 0.17 | 0.63 | 0.351 | 0.254 | 0.465 | 0.207 |  |  |  |  |  | 0.492 | 0.443 |  | 0.397 | 0.373 | 0.146
9 | HCC-78 | 0.408 | 0.316 | 0.331 | 0.299 |  |  |  |  |  | 0.961 | 0.836 | 0.765 | 0.705 | 0.714 | 0.811 | 0.891 | 0.448 | 0.589 | 0.658 | 0.307
10 | IA-LM |  |  |  |  |  |  |  |  |  | 0.787 | 0.82 | 0.946 | 0.818 | 0.835 | 0.723 | 0.931 | 0.817 |  | 0.894 | 
11 | NCI-H650 | 0.424 | 0.449 | 0.451 | 0.43 | 0.659 | 0.875 | 0.732 | 0.576 | 0.505 |  |  |  |  |  | 1.09 |  | 0.916 | 0.941 | 1.11 | 0.35
12 | ChaGo-K-1 | 0.587 | 0.562 | 0.572 | 0.24 | 0.688 | 0.463 | 0.445 | 0.27 | 0.227 | 0.959 | 1.1 |  | 0.881 | 0.901 |  |  |  |  |  | 0.249
13 | NCI-H522 | 0.807 | 0.844 | 0.911 | 0.946 | 1.15 | 1.42 | 1.25 | 0.873 | 1.45 |  |  |  |  |  |  |  |  |  |  | 
14 | NCI-H1299 |  |  |  |  |  |  |  |  |  | 1.1 | 1.08 | 1.01 | 1.05 | 1.04 | 0.967 | 0.947 | 0.961 | 0.991 | 0.964 | 
15 | NCI-H2342 | 0.309 | 0.302 | 0.291 | 0.301 | 0.738 | 0.722 | 0.704 | 0.508 | 0.506 |  |  |  |  |  |  |  |  |  |  | 0.28
16 | SW 900 | 0.502 | 0.471 | 0.484 | 0.345 | 0.185 | 0.168 | 0.196 | 0.164 | 0.176 |  |  |  |  |  |  |  |  |  |  | 0.385
17 | HCC-366 | 0.637 | 0.472 | 0.542 | 0.155 |  |  |  |  |  | 1.15 | 0.965 | 0.89 | 0.97 | 1.08 | 1.09 | 0.977 | 0.899 | 0.971 | 1.07 | 0.0442
18 | A549 |  |  |  |  |  |  |  |  |  | 1.27 | 1.14 | 1.34 | 1.28 | 1.28 | 1.05 | 0.937 | 1.12 | 0.974 | 0.95 | 
19 | NCI-H661 | 0.856 | 0.916 | 0.849 | 0.564 | 0.91 | 0.943 | 0.95 | 0.799 | 0.854 |  |  |  |  |  | 0.515 | 0.469 | 0.502 | 0.396 | 0.535 | 
20 | NCI-H1563 | 0.496 | 0.466 | 0.452 | 0.461 | 0.499 | 0.481 | 0.555 | 0.458 | 0.436 |  |  |  |  |  | 1.03 | 0.95 | 0.881 | 0.825 | 0.921 | 0.457
21 | ABC-1 | 0.541 | 0.575 | 0.585 | 0.429 | 0.581 | 0.648 | 0.515 | 0.567 | 0.516 |  |  |  |  |  | 1.03 | 1.12 | 1.19 | 0.924 | 1.24 | 0.402
22 | LCLC-103H | 0.466 | 0.434 | 0.539 | 0.482 | 0.971 | 1.03 | 1 | 0.975 | 0.751 |  |  |  |  |  |  |  |  |  |  | 0.331
23 | NCI-H441 | 0.69 | 0.649 | 0.516 | 0.435 | 0.381 | 0.298 | 0.321 | 0.316 | 0.325 | 0.608 | 0.619 |  | 0.697 | 0.626 |  |  |  |  |  | 0.585
